# Non-standard residues stand in square brackets, D forms with d. No end group written: not given here. pGlu = O=C1CC[C@@H](C(=O)O)N1; Gip = not defined here
# Assays:
# [1] = test system: CaCo2 monolayers (tight junctions); assay: Inhibition of agonist-induced Lucifer Yellow flux through CaCo2 monolayers; details: inhibition of the increase in Lucifer Yellow permeability induced by SEQ ID NO:70 (FCIGRL); CaCo2 monolayers
# Source text: (§1) Measurement of the Inhibition of the Decrease in Trans Epithelial Electric Resistance (TEER) and Epithelial Flux of a Fluorescent Marker Lucifer Yellow
# (§2) Antagonists of tight junctions can be identified by their ability to prevent or decrease the enhancement of the flux of compounds (e.g. Lucifer Yellow) through the monolayer induced by agonists of tight junctions (e.g., SEQ ID NO: 70). Antagonists of tight junctions can also be identified by their ability to prevent the decrease in TEER induced by agonists of tight junctions (e.g., SEQ ID NO: 70).
# (§3) Tight junction antagonists can be identified using the following method:
# (§4) Prepare Modified Hank's Balanced Salt Solution (MHBSS) by obtaining IL bottle of HBSS removing 10 ml of HBSS and replacing it with 10 ml HEPES buffer pH 7.0. Adjust pH to 7.4±0.1 using concentrated NaOH (10N).
# (§5) Remove Caco-2 cells from incubator, grown on 12-well, […], polycarbonate Transwell® filters (Corning) and record passage number, date cells seeded and age in days.
# (§6) Aspirate cell culture medium from both the apical (AP) and basolateral (BL) compartments, replacing with 0.5 ml and 1.5 ml of MHBSS, respectively. Incubate cells at 37° C. for 30 minutes.
# (§7) Prepare a stock solution of the Antagonist Pretreatment Solution by dissolving the appropriate amount of antagonist in MHBSS. Vortex or sonicate the solution until it is clear then adjust pH to 7.4±0.1 using 1N NaOH. Preincubate each filter for 30 min with these solutions at 37° C. and 50 RPM.
# (§8) Prepare stock solutions of Antagonist Treatment Solution by dissolving appropriate amounts of antagonist and agonist (for example, a peptide agonist such as a peptide having the sequence FCIGRL (SEQ ID NO: 70)) in 7.5 mM Lucifer Yellow solution in MHBSS. Vortex or sonicate the solution until it is clear then adjust pH to 7.4±0.1 using 1N NaOH.
# (§9) Aspirate Antagonist Pretreatment Solution from the apical compartment of each filter (n=3 per condition) and replace with 0.5 ml of control and test solutions.
# (§10) Place all plates into incubator set at 37° C. (±0.2), 50 RPM (±5) for a total of 180 minutes.
# At t=60, 120 and 180 minutes remove 100 μl from each basolateral compartment and place it in a 96-well plate for Lucifer Yellow analysis, replace with 100 μl of HBSS.
# Make a Lucifer Yellow standard curve with the following dilutions (7500 μM, 3750 μM, 750 μM, 375 μM, 75 μM, 37.5 μM, 7.5 μM, 3.75 μM, 0.75 μM) and pipette 100 μL of each into a 96-well plate except for the first three standards mentioned above which require a 1:10 dilution prior to transferring to the 96-well plate.
# At t=0 make 1:10 dilutions of each starting Antagonist Treatment Solution mentioned above and pipette 100 μL of each into a 96-well plate.
# At t=180 make 1:10 dilutions of Antagonist Treatment Solution from the apical compartment of each filter and pipette 100 μL of each into the 96-well plate.
# Analyze each 96-well plate in a Tecan Spectra Fluor Plus using Magellan at 485 and 535 nm.
# (§11) Cells: Caco-2 cells passage 40-60 grown on Transwell® plates for 21-28 days
# (§12) SEQ ID NO: 70 is a 6-mer peptide tight junction agonist having the sequence FCIGRL. See US patent publication US 2005/0059593 A1. In the following tables + indicates attenuation of the effects of the tight junction agonist were observed and − indicates no attenuation of the effects of the tight junction agonist were observed.
# [2] = test system: CaCo2 monolayers (tight junctions); assay: Inhibition of agonist-induced decrease in trans epithelial electric resistance (TEER) of CaCo2 monolayers; details: inhibition of the reduction in TEER induced by SEQ ID NO:70 (FCIGRL); CaCo2 monolayers
# Source text: as §1, §2, §3, §4, §5, §6
# Using the MilliCell®-ERS instrument (Millipore), measure and record the transepithelial electrical resistance (TEER) across each filter and record.
# as §7, §8, §9, §10
# At t=30, 60, 120 and 180 minutes, measure and record the transepithelial electrical resistance (TEER) across each filter using the MilliCell-ERS instrument.
# as §11, §12
Substance,Reduced LY Permeability [1],Prevented TEER Reduction [2]
Glp-Pro-Gln ([pGlu]-Pro-Gln) [SEQ ID NO: 53],−,−
Glp-Pro-Asp ([pGlu]-Pro-Asp) [SEQ ID NO: 59],−,−
Ile-Pro-Gly (IPG; Tight junction antagonist) [SEQ ID NO: 31],+,+
Glp-Pro-Lys ([pGlu]-Pro-Lys) [SEQ ID NO: 64],−,−
Gly-Pro-Gly (GPG; Tight junction antagonist) [SEQ ID NO: 22],+,+
Gip-Pro-Ile ([Gip]-Pro-Ile; reading uncertain; also: printed as Gip-Pro-Ile) [SEQ ID NO: 67],−,+
Glp-Pro-Asn ([pGlu]-Pro-Asn) [SEQ ID NO: 54],−,+
"GGVLVQPG [SEQ ID NO: 1, reference compound]",+,+
VLVQPG [SEQ ID NO: 3],+,+
Tyr-Pro-Gly (YPG; Tight junction antagonist) [SEQ ID NO: 29],+,+
(d)Gln-Pro-Gly ([dQ]-Pro-Gly) [SEQ ID NO: 10],+,+
Glp-Asp-Gly ([pGlu]-Asp-Gly) [SEQ ID NO: 50],−,−
Glp-Ser-Gly ([pGlu]-Ser-Gly) [SEQ ID NO: 38],−,−
Gln-Ala-Gly (QAG; Tight junction antagonist) [SEQ ID NO: 8],+,+
Glp-Pro-Pro ([pGlu]-Pro-Pro) [SEQ ID NO: 57],−,+
Glp-Val-Gly ([pGlu]-Val-Gly) [SEQ ID NO: 36],−,−
Pro-Pro-Gly (PPG; Tight junction antagonist) [SEQ ID NO: 33],−,−
Gly-Pro-(d)Gln (Gly-Pro-[dQ]) [SEQ ID NO: 15],−,−
Trp-Pro-Gly (WPG; Tight junction antagonist) [SEQ ID NO: 32],+,+
Glp-Leu-Gly ([pGlu]-Leu-Gly) [SEQ ID NO: 52],−,−
Asn-Pro-Gly (NPG; Tight junction antagonist) [SEQ ID NO: 27],+,+
Glp-Gln-Gly ([pGlu]-Gln-Gly) [SEQ ID NO: 37],−,−
Glp-Pro-Tyr ([pGlu]-Pro-Tyr) [SEQ ID NO: 69],−,+
Thr-Pro-Gly (TPG; Tight junction antagonist) [SEQ ID NO: 30],+,−
Glp-Lys-Gly ([pGlu]-Lys-Gly) [SEQ ID NO: 39],−,−
Gly-(d)Pro-Gln (Gly-[dP]-Gln) [SEQ ID NO: 14],−,−

# Source: patent US8785374B2, “Inhibitors of mammalian tight junction opening” (Alba Therapeutics Corporation, priority 2007, dated 2014)
